Measurements as given in patent US6046329A, “Uracil derivatives” (Byk Gulden Lomberg Chemische Fabrik GmbH, priority 1994, dated 2000).

What was measured:
α1B receptor = biological target: T1, α1B receptor (Rattus norvegicus, UniProt P15823); assay: Radioligand binding with [3H]prazosine (in the presence of WB 4101), affinity for α1B receptor subtype; details: membranes from rat brain cortex, subtype-selective substances tested again in the presence of 3 nmol/l WB 4101, Cheng and Prusoff, read-out: Receptor affinity α1B, expressed in pKI values (converted)
T1 construct: membranes from rat brain cortex; from tissue; host or cells: rat brain cortex membranes
T1 sequence (P15823 1-515): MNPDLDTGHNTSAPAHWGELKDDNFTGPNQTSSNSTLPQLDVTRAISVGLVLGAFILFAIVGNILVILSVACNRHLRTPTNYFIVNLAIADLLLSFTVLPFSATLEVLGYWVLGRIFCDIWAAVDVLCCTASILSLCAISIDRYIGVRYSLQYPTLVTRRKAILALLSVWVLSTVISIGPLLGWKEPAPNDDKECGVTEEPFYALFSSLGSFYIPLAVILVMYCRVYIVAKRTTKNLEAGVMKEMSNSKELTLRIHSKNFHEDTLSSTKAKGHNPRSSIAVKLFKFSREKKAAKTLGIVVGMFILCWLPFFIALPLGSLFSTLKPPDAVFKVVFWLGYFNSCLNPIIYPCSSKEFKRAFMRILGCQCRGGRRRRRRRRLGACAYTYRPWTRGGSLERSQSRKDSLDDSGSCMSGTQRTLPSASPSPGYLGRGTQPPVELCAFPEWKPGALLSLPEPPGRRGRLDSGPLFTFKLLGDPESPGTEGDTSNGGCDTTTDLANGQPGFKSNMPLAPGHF
Protocol: (§1) The affinity of substances for α1 receptor subtypes was determined in radioligand binding studies using [^3 H]prazosine as a radioligand. 50-200 μg of membranes from rat brain cortex were incubated in a total volume of 0.5-1 ml with [^3 H]prazosine (0.2 to 0.5 nmol/l) in the presence of rising concentrations of substances. The incubation buffer used was 50 mmol/l tris/HCl pH 7.5, 1 mmol/l EDTA, 0.1 mmol/l PMSF. The nonspecific binding was determined in separate batches in the presence of 10 μmol/l of phentolamine or 1 μmol/l of prazosine. After 1 h at 37° C., the bound radioactivity was separated from the free radioactivity by rapid filtration of the incubation batch at 0° C. through glass fiber filters. The filters were washed twice with 3.5 ml each of cold filtration buffer (50 mmol/l tris/HCl pH 7.4, 10 mmol/l MgCl2, 10% polyethylene glycol 6000). The filter-bound radioactivity was determined by liquid scintillation counting. Substances with subtype selectivity for the α1 receptor subtypes were tested again in the presence of 3 nmol/l of WB 4101. WB4101 blocks the binding of [^3 H]prazosine to the α1A receptor subtype and the remaining binding corresponds to that to the α1B receptor.
(§2) For each substance, dose-response curves were plotted by means of nonlinear regression using the Inplot program (GraphPad, Sorento, Calif., USA). IC50 values were corrected by the concentration of the radioligand employed according to the formula of Cheng and Prusoff. The resulting KI values (see following table) represent the affinity of the respective substance for the tested receptor. The compounds according to the invention investigated according to the model illustrated in greater detail above have been provided in the following table with numbers which correspond to the numbers of these compounds in the examples.

5-HT1A receptor = biological target: T2, 5-HT1A receptor (Sus scrofa, UniProt A0A4X1UTF5); assay: Radioligand binding with [3H]8-OH-DPAT, affinity for 5-HT1A receptor; details: membranes from pig brain cortex, IC50 corrected according to Cheng and Prusoff, read-out: Receptor affinity 5-HT1A, expressed in pKI values (converted)
T2 construct: membranes from pig brain cortex; from tissue; host or cells: pig brain cortex membranes
T2 sequence (A0A4X1UTF5 1-422): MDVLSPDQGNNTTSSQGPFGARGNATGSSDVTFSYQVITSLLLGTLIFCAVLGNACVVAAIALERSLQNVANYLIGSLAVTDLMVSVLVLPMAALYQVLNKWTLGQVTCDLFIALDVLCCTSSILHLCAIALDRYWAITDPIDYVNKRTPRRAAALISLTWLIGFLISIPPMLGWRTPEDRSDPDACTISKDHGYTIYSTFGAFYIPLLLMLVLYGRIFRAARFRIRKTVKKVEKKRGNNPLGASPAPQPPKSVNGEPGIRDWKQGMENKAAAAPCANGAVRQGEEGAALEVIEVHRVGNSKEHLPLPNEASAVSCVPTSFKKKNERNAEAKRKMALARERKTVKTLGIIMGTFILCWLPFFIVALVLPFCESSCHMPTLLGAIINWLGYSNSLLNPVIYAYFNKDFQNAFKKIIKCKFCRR
Protocol: The affinity of substances for the 5-HT1A receptor was determined in radioligand binding studies using [^3 H]8-OH-DPAT as a radioligand. 50-150 μg of membranes from pig brain cortex were incubated in a total volume of 0.25-0.5 ml with [^3 H]8-OH-DPAT (0.2 to 0.4 nmol/l) in the presence of rising concentrations of substances. The incubation buffer used was 50 mmol/l tris/HCl pH 8.2, 1 mmol/l MnCl2. The nonspecific binding was determined in separate batches in the presence of 10 μmol/l of 5-HT. After 30 min at 23° C., the bound radioactivity was separated from the free radioactivity by rapid filtration of the incubation batch at 0° C. through glass fiber filters. The filters were washed twice with 3.5 ml each of cold filtration buffer (50 mmol/l tris/HCl pH 7.4, 10 mmol/l MgCl2, 10% polyethylene glycol 6000). The filter-bound radioactivity was determined by liquid scintillation counting.
as §2

α1A receptor = biological target: T3, α1A receptor (Rattus norvegicus, UniProt P43140); assay: Radioligand binding with [3H]prazosine, affinity for α1A receptor subtype; details: membranes from rat brain cortex, IC50 corrected according to Cheng and Prusoff, read-out: Receptor affinity α1A, expressed in pKI values (converted)
T3 construct: membranes from rat brain cortex; from tissue; host or cells: rat brain cortex membranes
T3 sequence (P43140 1-466): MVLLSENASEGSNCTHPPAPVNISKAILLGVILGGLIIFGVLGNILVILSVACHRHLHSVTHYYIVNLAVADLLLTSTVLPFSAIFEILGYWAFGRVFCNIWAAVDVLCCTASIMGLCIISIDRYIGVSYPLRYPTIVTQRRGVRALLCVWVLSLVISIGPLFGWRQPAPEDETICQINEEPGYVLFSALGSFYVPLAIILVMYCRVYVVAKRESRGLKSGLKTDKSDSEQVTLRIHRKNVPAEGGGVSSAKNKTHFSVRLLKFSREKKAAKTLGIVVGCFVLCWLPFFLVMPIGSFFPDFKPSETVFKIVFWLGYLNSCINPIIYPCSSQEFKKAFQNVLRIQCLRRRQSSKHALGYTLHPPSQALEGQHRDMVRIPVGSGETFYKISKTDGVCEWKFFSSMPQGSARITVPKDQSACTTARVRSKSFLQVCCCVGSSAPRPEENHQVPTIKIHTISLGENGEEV
Protocol: as §1, §2

Structure (SMILES) | Ki (α1B receptor) [nM] | Ki (5-HT1A receptor) [nM] | Ki (α1A receptor) [nM]
COc1ccccc1N1CCN(CCCNC(=O)c2cc(=O)n(C)c(=O)n2C)CC1 [Compound 5, 1,3-Dimethyl-2,4(1H,3H)-pyrimidinedione-6-carboxylic acid [[3-[4-(2-methoxyphenyl)-1-piperazinyl]propyl]amide]] | 251 | 2.51 | 5.01
COc1cc(NC(C)=O)ccc1N1CCN(CCCNc2c(C)c(=O)n(C)c(=O)n2C)CC1 [Compound 21, 1,3,5-Trimethyl-6-[[3-[4-(4-acetylamino-2-methoxyphenyl)-1-piperazinyl]propyl]amino]-2,4(1H,3H)pyrimidinedione] | > 10000 | 5.01 | > 10000
CCOc1cc(F)ccc1N1CCN(CCCNc2c(Cc3c(NCCCN4CCN(c5ccc(F)cc5OCC)CC4)n(C)c(=O)n(C)c3=O)c(=O)n(C)c(=O)n2C)CC1 [Compound 4, Bis[1,3-dimethyl-6-[[3-[4-(2-ethoxy-4-fluorophenyl)-1-piperazinyl]propyl]amino]-2,4(1H,3H)-pyrimidinedione-5,5'-yl]methane] | 1 | 39.8 | 1
C=CCc1c(NCCCN2CCN(c3ccc(F)cc3OCC)CC2)n(C)c(=O)n(C)c1=O [Compound 7, 5-Allyl-1,3-dimethyl-6-[[3-[4-(2-ethoxy-4-fluorophenyl)-1-piperazinyl]propyl]amino]-2,4(1H,3H)-pyrimidinedione] | 39.8 | 0.794 | 0.631
